Entries after “also recorded” stand apart in the source; their conditions may differ. Where two headings read alike, the source gives them in different places.
What was measured:
[1] = target: GluN1/GluN2B NMDARs; conditions: cited from earlier work; for Ki or IC50: Sup. Fig. 2G, Ki or IC50 not specified
[2] = target: T1, GluN1/GluN2B NMDA receptors (UniProt P35439+Q01097); experiment: TEVC electrophysiology on Xenopus oocytes expressing wt GluN1/GluN2B NMDARs; type: cell-based, rat GluN1, mouse GluN2B; conditions: theoretical dose-response curve of a pure cis population calculated from 365 and 350 nm PSS
T1 construct: expressed in transfected cells; host or cells: Xenopus laevis oocytes (nuclear cDNA injection)
From the text: The activity of OptoNAM-3 was functionally monitored by electrophysiology on Xenopus oocytes (see Methods). To assess the light-dependent effect, we tested the activities of the dark PSS (mostly trans) and the UV PSS (mostly cis, see above) separately. For each concentration, we prepared a solution divided into two samples: one in which the compound was kept in the dark for the duration of the experiment (dark PSS state); and the other that was preilluminated with either 350 or 365 nm light (350 or 365 nm PSS) and then kept away from the light for the duration of the experiment in order to avoid photoisomerization of the compounds by ambient light (see Methods). […] We generated dose–response curves of OptoNAM-3 dark and UV PSS on wild-type (wt) GluN1/GluN2B NMDA receptors (Figure 3A) in the presence of saturating concentrations of agonists (100 μM glutamate and glycine).
We used cDNA coding for rat GluN1–1a (named GluN1 herein) (GenBank: U08261.1), rat GluN2A (GenBank: D13211.1), mouse GluN2B (GenBank: D10651.2), rat GluA1 flop (GenBank: M36418.2), and rat Myc-GluA2(Q)-flip (GenBank: AF164344.1) cloned into pcDNA3-based expression plasmids. GluK2 (GenBank: Z11548.1) corresponds to the fully RNA-edited version.[80] The GluN2B-ΔNTD construct is from ref[45] and GluN2B–N615K is from ref[81]. Single mutants GluN2B-Q110G and GluN1-L135H were from ref[19]. The GluA2 cDNA contains a Myc tag ([…]) fused between the signal peptide and the N-terminus sequences, and the GluA2 subunit is […] for its Q/R/N site (GluA2(Q)) to allow permeation of homomeric GluA2 receptors.[2] cDNAs coding for rat GluN2C (GenBank: M91563.1) and GluN2D subunits (GenBank: L31611.1) were in prK5 plasmids.
Oocytes from Xenopus laevis were used for heterologous expression of recombinant NMDA receptors studied using a two-electrode voltage clamp (TEVC). Female Xenopus laevis were housed and ovary bags harvested according to the European Union guidelines (husbandry authorizations #C75–05–31 and #D75–05–31; project authorizations #05137.02; and Apafis #28867–2020121814485893). Fragments of ovary bags were also purchased from the “Centre de Ressources Biologiques Xenopes” (now TEFOR, Paris Saclay, France) and from the European Xenopus Resource Center (EXRC, Portsmouth, UK). Xenopus laevis oocytes were harvested and prepared as previously described in ref[82].
Expression of recombinant NMDA receptors was obtained by oocyte nuclear coinjection of 37 nL of a mixture of cDNAs (at 30 ng/μL) coding for GluN1–1a and various GluN2 subunits (ratio 1:1). The protocol in ref[43] was followed for the expression of GluN1/GluN2A/GluN2B triheteromers. The oocytes were transferred in 96-well plates filled with Barth solution (in mM: 88 NaCl, 1 KCl, 0.33 Ca(NO3)2, 0.41 CaCl2, 0.82 MgSO4, 2.4 NaHCO3, and 7.5 HEPES, pH adjusted to 7.3 with NaOH), supplemented with gentamicin ([…]) and 50 μM APV, a selective NMDA receptor antagonist. Plates were then stored at 18 °C for 24 h for GluN1/GluN2A expression and for 48––72 h for the expression of GluN1/Glu2B, GluN1/GluN2A/GluN2B, and mutants.
TEVC recordings were performed 1–3 days following injection. TEVC recordings were performed using an Oocyte Clamp amplifier OC-725 (Warner Instruments) and computer-controlled via a 1440A Digidata (Molecular Devices). Currents were sampled at 100 Hz and low-pass-filtered at 20 Hz using an 8-pole Bessel filter (900 Series, Frequency Devices Inc.).

[3] = test system: cultured cortical neurons at DIV 14; experiment: NMDA excitotoxicity test, neuronal survival by MTT; type: cell-based, mouse; conditions: for neuronal survival: 5 µM inhibitor + 100 µM NMDA + 10 µM glycine; for % of survival, Mean: compound 5µM with NMDA 100µM, MTT A(540 nm) normalized to control (100) and NMDA alone (0)
From the text: We first investigated whether OptoNAM-3 could be used in the context of a patho-physiological process related to GluN1/GluN2B receptors. Overactivation of NMDARs induced by tonic exposure to glutamate or NMDA is well-known to trigger neuronal death.[6] GluN1/GluN2B receptors are thought to be the major player of this neurotoxicity, and GluN1/GluN2B antagonists have proven to be potent neuroprotectants in vitro and in vivo.[5],[15] To test the neuroprotective activity of OptoNAM-3 and its photodependence of action, we performed a protocol of excitotoxicity based on exposure to NMDA (100 μM) of cultured cortical neurons at DIV 14,[15] in the presence of OptoNAM-3. […] OptoNAM-3 in the dark, at a concentration of 5 μM, induced, like ifenprodil, an ∼50% increase in cell survival (Figure S4). […] OptoNAM-3 is therefore able to promote cell survival in neuron cultures in a photodependent manner.
Mice were housed in the IBENS rodent central facility duly accredited by the French Ministry of Agriculture. All experiments were performed in compliance with French and European regulations on care and protection of laboratory animals (EU Directive 2010/63, French Law 2013–118, February 6, 2013), and were approved by local ethics committees and by the French Ministry of Research and Innovation (authorization numbers #05137.02, APAFIS #28867-2020121814485893). Dissociated cultures of cortical neurons were prepared from mouse embryos at E18 as described previously.[84] After removing meninges, cortices were placed in ice-cold HBSS solution. Cell dissociation was performed individually for cortices of each embryo. Cortices were incubated in 2.5% trypsin at 37 °C for 7 min, rinsed three times with 37 °C phosphate buffer saline, and finally suspended in plating medium (Neurobasal Medium, supplemented with 0.5 mM L-glutamine, 1% B27 supplement, and penicillin/streptomycin). The neurons were further dissociated by trituration, and cells were plated on poly-D-lysine coated coverslips in 24-well culture dishes at a density of 3 × 10^5 cells per well for the excitotoxicity test and that of 1 × 10^5 cells per well for patch clamp experiments. Cultures were incubated at 37 °C in a humidified atmosphere of 5% CO2. Cells were fed by changing 1/2 medium to fresh Neurobasal medium every 4 days. For the excitotoxicity experiments, after 5 days in vitro, growth of non-neuronal cells was halted by a 24 h exposure to FDX ([…] 5-fluoro-2′-deoxyuridine). The cultures were used for experiments after 6 to 14 days in vitro (DIV6–8 for patch clamp experiments and DIV14 for excitotoxicity tests).
Excitotoxicity tests were performed 14 days after the culturing step as described in ref[15]. Just before the experiments, the neuronal medium was changed and the neurons incubated in the external patch recording solution (see above). Two replicates of 24 well plates containing cultured cortical neurons were exposed to the same 4 conditions, in which the following compounds were added to the medium: (1) glycine (10 μM) alone (control); (2) glycine (10 μM) + NMDA (100 μM); (3) glycine (10 μM) + NMDA (100 μM) + 5 μM ifenprodil; and (4) glycine (10 μM) + NMDA (100 μM) + 5 μM trans-OptoNAM-3 (dark). One of the two plates was exposed to UV light (Jena analytic US, UVP Hand-held UV lamp UVGL-58, power ∼1 mW) for 2 min. The two plates were then put back in the 37 °C incubator for 10 min. Agonist exposure was terminated by washing out the exposure solution with conditioned Neurobasal medium, prior to returning the dishes to the incubator for 24 h before assessment of neuronal death.
Overall neuronal cell death was determined 24 h after NMDA exposure by the MTT test. Mitochondrial and cytosolic dehydrogenases of living cells reduce the yellow tetrazolium salt (MTT) to produce a purple formazan dye that can be detected spectrophotometrically.[85] […]

T1 sequence (Q01097 27-1482, other chains not shown): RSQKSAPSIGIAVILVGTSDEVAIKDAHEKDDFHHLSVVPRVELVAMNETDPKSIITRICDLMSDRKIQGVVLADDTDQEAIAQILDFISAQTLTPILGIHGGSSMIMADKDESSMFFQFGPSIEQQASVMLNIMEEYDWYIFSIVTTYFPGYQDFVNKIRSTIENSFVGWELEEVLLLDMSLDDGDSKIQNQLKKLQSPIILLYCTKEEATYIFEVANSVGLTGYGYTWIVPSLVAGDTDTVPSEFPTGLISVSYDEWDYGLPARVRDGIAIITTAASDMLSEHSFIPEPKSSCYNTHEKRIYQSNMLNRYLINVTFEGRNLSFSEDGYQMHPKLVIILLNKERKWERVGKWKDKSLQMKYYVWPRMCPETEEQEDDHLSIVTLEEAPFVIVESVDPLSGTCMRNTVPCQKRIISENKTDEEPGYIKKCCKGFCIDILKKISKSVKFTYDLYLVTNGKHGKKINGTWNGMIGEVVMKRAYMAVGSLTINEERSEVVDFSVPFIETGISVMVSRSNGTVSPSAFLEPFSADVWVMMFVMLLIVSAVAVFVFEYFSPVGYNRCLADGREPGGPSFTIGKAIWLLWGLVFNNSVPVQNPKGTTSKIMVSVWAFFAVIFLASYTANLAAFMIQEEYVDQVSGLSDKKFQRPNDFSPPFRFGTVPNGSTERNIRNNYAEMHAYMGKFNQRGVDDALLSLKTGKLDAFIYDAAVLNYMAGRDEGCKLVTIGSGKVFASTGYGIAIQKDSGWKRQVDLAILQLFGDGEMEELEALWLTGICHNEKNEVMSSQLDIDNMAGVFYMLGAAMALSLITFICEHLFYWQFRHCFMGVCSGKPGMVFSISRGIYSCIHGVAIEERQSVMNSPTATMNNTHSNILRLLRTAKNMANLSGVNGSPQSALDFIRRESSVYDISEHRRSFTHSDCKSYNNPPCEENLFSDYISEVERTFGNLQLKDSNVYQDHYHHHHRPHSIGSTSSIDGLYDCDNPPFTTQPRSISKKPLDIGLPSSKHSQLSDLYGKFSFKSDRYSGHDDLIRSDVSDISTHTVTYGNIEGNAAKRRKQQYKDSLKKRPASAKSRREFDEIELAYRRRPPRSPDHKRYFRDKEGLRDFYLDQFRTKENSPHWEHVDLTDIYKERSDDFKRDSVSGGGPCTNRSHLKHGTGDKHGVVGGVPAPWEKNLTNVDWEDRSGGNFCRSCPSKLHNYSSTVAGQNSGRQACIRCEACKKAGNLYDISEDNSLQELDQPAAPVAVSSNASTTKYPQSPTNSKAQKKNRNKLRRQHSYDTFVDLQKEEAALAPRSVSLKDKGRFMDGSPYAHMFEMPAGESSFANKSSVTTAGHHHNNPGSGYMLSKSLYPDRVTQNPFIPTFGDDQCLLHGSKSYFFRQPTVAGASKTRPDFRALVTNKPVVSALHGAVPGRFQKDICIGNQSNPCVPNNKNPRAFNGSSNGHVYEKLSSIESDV

**Q.** With Cc1cc(N)nc(/C=C/c2ccccc2)c1 [parent compound 2] as the molecule, how does the Ki or IC50 ([1]; ref: ref. 40) read?
**A.** 10 nM

**Q.** What about the IC50 ([1]; ref 2,6 (SI), read-out: Parent compound IC50) of the same molecule?
**A.** 10 nM

**Q.** With c1ccc(/N=N\c2ccc(CCNc3ccncc3)cc2)cc1 [cis-OptoNAM-3] as the molecule, how does the “activity of the cis isomer on GluN1/GluN2B NMDARs” value [2] read?
**A.** inactive

**Q.** Which results are given for CC(C(O)c1ccc(O)cc1)N1CCC(Cc2ccccc2)CC1 (stereo not drawn) [ifenprodil]?
**A.** neuronal survival ([3]; 2 min UV (365 nm), normalized to control and NMDA): not affected; also recorded: No photodependent effect; neuronal survival ([3]; dark, normalized to control (100%) and NMDA (0%)): 60%; % of survival, Mean ([3]; Dark): 59.345%; % of survival, Mean ([3]; UV): 59.393%

**Q.** For Nc1ccnc(N2CCc3ccccc3C2)c1 [9n = Compound 1], which Ki or IC50 ([1]; ref: ref. 39) is on record?
**A.** 3 nM

**Q.** Which Ki ([1]; ref 3 (SI), read-out: Parent compound Ki) does the source give for Nc1ccnc(N2CCc3ccccc3C2)c1 [parent compound 1] here?
**A.** 3 nM

From publication PMC11413854, “Reversible Control of Native GluN2B-Containing NMDA Receptors with Visible Light” (ACS Chemical Neuroscience, 2024)
